Measurements as given in US5750135A, “Stabilized feed additive and process for the preparation thereof” (Boehringer Ingelheim Vetmedica GmbH, priority 1987, dated 1998).

Assay: Recovery rate of zinc bacitracin in various feeds on storage at ambient temperature
Format: physicochemical
Settings: initial 1,000 ppm = 100%
Text: Stabilization of the active substance zinc bacitracin is achieved with the process according to the invention.

Recovery rate of zinc bacitracin (ZBA) in % (meal feed 2.16 mineral supplement, 1.5 weeks): 94.6% | Recovery rate of zinc bacitracin (ZBA) in % (meal feed 2.16 mineral supplement, 4 weeks): 91.2% | Recovery rate of zinc bacitracin (ZBA) in % (meal feed 2.16 mineral supplement, 6 weeks): 68.5% | Recovery rate of zinc bacitracin (ZBA) in % (meal feed 2.16 mineral supplement, 8 weeks): 73.7% | Recovery rate of zinc bacitracin (ZBA) in % (meal feed 2.6 complete feed for fattening pigs, 1.5 weeks): 116.4% | Recovery rate of zinc bacitracin (ZBA) in % (meal feed 2.6 complete feed for fattening pigs, 4 weeks): 107.6% | Recovery rate of zinc bacitracin (ZBA) in % (meal feed 2.6 complete feed for fattening pigs, 6 weeks): 93.1% | Recovery rate of zinc bacitracin (ZBA) in % (meal feed 2.6 complete feed for fattening pigs, 8 weeks): 83.3% | Recovery rate of zinc bacitracin (ZBA) in % (meal feed 7.4 complete feed for fattening chicks, 1.5 weeks): 89.8% | Recovery rate of zinc bacitracin (ZBA) in % (meal feed 7.4 complete feed for fattening chicks, 4 weeks): 82.9% | Recovery rate of zinc bacitracin (ZBA) in % (meal feed 7.4 complete feed for fattening chicks, 6 weeks): 66.2% | Recovery rate of zinc bacitracin (ZBA) in % (meal feed 7.4 complete feed for fattening chicks, 8 weeks): 51.9% | Recovery rate of zinc bacitracin (ZBA) in % (meal feed 7.7 complete feed for laying hens, 1.5 weeks): 96.5% | Recovery rate of zinc bacitracin (ZBA) in % (meal feed 7.7 complete feed for laying hens, 4 weeks): 98.8% | Recovery rate of zinc bacitracin (ZBA) in % (meal feed 7.7 complete feed for laying hens, 6 weeks): 86.4% | Recovery rate of zinc bacitracin (ZBA) in % (meal feed 7.7 complete feed for laying hens, 8 weeks): 80.4% | Recovery rate of zinc bacitracin (ZBA) in % (pellet feed 2.6 complete feed for fattening pigs, 1.5 weeks): 90.5% | Recovery rate of zinc bacitracin (ZBA) in % (pellet feed 2.6 complete feed for fattening pigs, 4 weeks): 75.7% | Recovery rate of zinc bacitracin (ZBA) in % (pellet feed 2.6 complete feed for fattening pigs, 6 weeks): 48.8% | Recovery rate of zinc bacitracin (ZBA) in % (pellet feed 2.6 complete feed for fattening pigs, 8 weeks): 40.8% | Recovery rate of zinc bacitracin (ZBA) in % (pellet feed 7.4 complete feed for fattening chicks, 1.5 weeks): 67.5% | Recovery rate of zinc bacitracin (ZBA) in % (pellet feed 7.4 complete feed for fattening chicks, 4 weeks): 40.2% | Recovery rate of zinc bacitracin (ZBA) in % (pellet feed 7.4 complete feed for fattening chicks, 6 weeks): 24.9% | Recovery rate of zinc bacitracin (ZBA) in % (pellet feed 7.4 complete feed for fattening chicks, 8 weeks): 21.4% | Recovery rate of zinc bacitracin (ZBA) in % (pellet feed 7.7 complete feed for laying hens, 1.5 weeks): 81.5% | Recovery rate of zinc bacitracin (ZBA) in % (pellet feed 7.7 complete feed for laying hens, 4 weeks): 65.8% | Recovery rate of zinc bacitracin (ZBA) in % (pellet feed 7.7 complete feed for laying hens, 6 weeks): 51.1% | Recovery rate of zinc bacitracin (ZBA) in % (pellet feed 7.7 complete feed for laying hens, 8 weeks): 42.4%
Substance: zinc bacitracin [Untreated control]
